This assay has as its target T1, SMO (Mus musculus, UniProt P56726).
T1 construct: endogenous in cells; host or cells: C3H10T1/2 (ATCC #CCL-226)
As to the kind of experiment: Smoothened (SMO)/Sonic Hedgehog (SHh) Transient Transcriptional Activation Assay (Gli-luciferase reporter in C3H10T1/2 cells). In kind it is cell-based, murine. The settings on record: SHh 250 ng/ml, 20 hrs. Summed up:
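C3H10T1/2 cells transiently transfected with a 10× murine Gli-responsive firefly luciferase reporter plus pEGFP, serum-starved 20 h in 0.5% calf serum, then treated with compounds (2 uM–2 nM final) and 250 ng/ml recombinant human SHh for 20 h at 37 °C. Read-out: Dual-Glo luminescence.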

The mark [1] stands for this setting: C3H 10T1/2, 2 μM test compound, read-out: SMO CELL % INHIBITION @ 2 μM.
Where [2] appears, read: C3H 10T1/2, 2 uM test compound, read-out: SMO % inhibition at 2 uM.

Structures are written as SMILES. Structures can show the parent of a compound that is named as a salt. Where two headings read alike, the source gives them in different places.

The source of these data is patent publication US20100029615A1, “BENZIMIDAZOLE DERIVATIVES” (priority 2006, published 2010).

T1 sequence (P56726 33-793): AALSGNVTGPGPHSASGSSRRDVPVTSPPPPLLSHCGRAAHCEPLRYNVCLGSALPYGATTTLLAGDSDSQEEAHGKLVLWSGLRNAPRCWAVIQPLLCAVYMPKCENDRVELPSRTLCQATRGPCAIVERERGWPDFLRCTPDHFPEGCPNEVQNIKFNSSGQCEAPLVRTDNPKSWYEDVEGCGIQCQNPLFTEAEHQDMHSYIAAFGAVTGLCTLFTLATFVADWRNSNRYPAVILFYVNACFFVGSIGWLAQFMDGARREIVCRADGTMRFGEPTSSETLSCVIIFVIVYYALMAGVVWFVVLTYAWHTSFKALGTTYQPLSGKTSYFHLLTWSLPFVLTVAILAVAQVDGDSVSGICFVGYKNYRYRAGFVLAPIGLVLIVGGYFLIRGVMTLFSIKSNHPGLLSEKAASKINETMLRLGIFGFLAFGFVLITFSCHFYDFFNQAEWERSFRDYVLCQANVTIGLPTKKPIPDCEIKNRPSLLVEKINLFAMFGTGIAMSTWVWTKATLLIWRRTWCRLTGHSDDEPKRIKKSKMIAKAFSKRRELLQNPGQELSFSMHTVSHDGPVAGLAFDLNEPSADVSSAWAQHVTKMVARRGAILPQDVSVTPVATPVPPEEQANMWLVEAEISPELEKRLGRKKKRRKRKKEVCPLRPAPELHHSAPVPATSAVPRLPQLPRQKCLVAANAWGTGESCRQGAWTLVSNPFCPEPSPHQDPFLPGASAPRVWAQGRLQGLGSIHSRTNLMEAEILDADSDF

Usually inhibition stands for the drop in the measured response relative to a control, in per cent. Take `COc1cc(OC)cc(C(=O)NC23CCCC(c4nc5ccccc5[nH]4)(C2)C3)c1` [Example 100, N-[5-(1H-benzimidazol-2-yl)bicyclo[3.1.1]hept-1-yl]-3,5-dimethoxybenz-amide]: the inhibition at 2 µM under setting [1] is 81%.
Still for that read-out and setting: then `Cc1cc2c(cc1C(=O)N[C@@H]1CCC[C@H](c3nc4ccccc4[nH]3)C1)OCCO2` [Example 307, N-[(1R,3S)-3-(1H-benzimidazol-2-yl)cyclohexyl]-7-methyl-2,3-dihydro-1,4-benzodioxine-6-carboxamide], with 90.5%; and `O=C(N[C@@H]1CCC[C@H](c2nc3ccccc3[nH]2)C1)c1ccc2c(c1)CCCO2` [Example 265, N-[(1R,3S)-3-(1H-benzimidazol-2-yl)cyclohexyl] chromane-6-carboxamide], with 103%; and `O=C(N[C@H]1CCC[C@@H](c2nc3ccccc3[nH]2)C1)c1ccc2c(c1)OCCO2` [Example 72, N-((1S,3R)-3-(1H-benzo[d]imidazol-2-yl)cyclohexyl)-2,3-dihydrobenzo[b] [1,4]dioxine-6-carboxamide HCl], with 96%.
Turning to `Cn1c([C@H]2CCC[C@@H](NC(=O)c3ccc4c(c3)OCCO4)C2)nc2ccccc21` [Example 3, N-((1R,3S)-3-(1-methyl-1H-benzo[d]imidazol-2-yl)cyclohexyl)-2,3-dihydrobenzo[b][1,4]dioxine-6-carboxamide], under setting [2], the inhibition at 2 µM stood at 107%.
In the case of `COc1ccc(C2(C(=O)NC3CCCC(c4nc5ccccc5[nH]4)C3)CC2)cc1` (centres unmarked) [Example 132, N-[3-(1H-benzimidazol-2-yl)cyclohexyl]-1-(4-methoxyphenyl) cyclopropane-carboxamide triflouroacetate], the inhibition at 2 µM under setting [1] worked out at 78%.
Consider `O=C(N[C@@H]1CCC[C@H](c2nc3ccc(C(F)(F)F)cc3[nH]2)C1)c1ccc2c(c1)OCCO2` [Example 223, N-((1R,3S)-3-[6-(trifluoromethyl)-1H-benzimidazol-2-yl]cyclohexyl]-2,3-dihydro-1,4-benzodioxine-6-carboxamide HCl], for which the inhibition at 2 µM under setting [1] is 105%.
Take `O=C(NC1CCCC(c2nc3ccccc3[nH]2)C1)c1ccc(CN2CCOCC2)o1` (centres unmarked) [Example 134, N-[3-(1H-benzimidazol-2-yl)cyclohexyl]-5-(morpholin-4-ylmethyl)-2-furamide triflouroacetate]: under setting [1], the inhibition at 2 µM was found to be 101%.
As for `COc1cc(OC)cc(C(=O)NC2CCCC(c3nc4ccc(C)cc4[nH]3)C2)c1` (centres unmarked) [Example 5, 3,5-dimethoxy-N-[3-(5-methyl-1H-benzo[d]imidazol-2-yl)cyclohexyl)benzamide], under setting [2], the inhibition at 2 µM was found to be 102%.
Same read-out and setting: then `COCCNc1ccc(C(=O)N[C@@H]2CCC[C@H](c3nc4ccccc4[nH]3)C2)cn1` [Example 41, N-((1R,3S)-3-(1H-Benzo-[d]imidazol-2-yl)cyclohexyl)-6-(2-methoxyethylamino)nicotinamide], with 87%.
Regarding `O=C(NC1CCCC(c2nc3ccccc3[nH]2)C1)c1cccnc1` (centres unmarked) [Example 53, N-[3-(1H-benzimidazol-2-yl)cyclohexyl]-nicotinamide HCl], the inhibition at 2 µM under setting [1] amounted to 96%.
On the same count and under the same terms, then `CN(C)S(=O)(=O)CC(=O)NC1CCCC(c2nc3ccccc3[nH]2)C1` (centres unmarked) [Example 162, N-[3-(1H-benzimidazol-2-yl)cyclohexyl]-2-{(dimethylamino)-sulfonyl]-acetamide triflouroacetate], with 71%.
`O=C(Cc1nc2ccc(Cl)cc2[nH]1)NC1CCCC(c2nc3ccccc3[nH]2)C1` (centres unmarked) [Example 46, N-(3-(1H-Benzo[d]imidazol-2-yl)cyclohexyl)-2-(6-chloro-1H-benzo[d]imidazol-2-yl)acetamide]: the inhibition at 2 µM under setting [2] is 108%.
On to `COc1ccc2cc(C(=O)N[C@H]3CCC[C@H](c4nc5ccccc5[nH]4)C3)n(C)c2c1` [Example 248, N-(3-(1H-benzo[d]imidaz-ol-2-yl)cyclohexyl)-6-methoxy-1-methyl-1H-indole-2-carboxamide HCl], for which the inhibition at 2 µM under setting [1] is 74%.
Still for that read-out and setting: then `CC(=O)c1c(C)[nH]c(C(=O)NC2CCCC(c3nc4ccccc4[nH]3)C2)c1C` (centres unmarked) [Example 99, 4-acetyl-N-[3-(1H-benzimidazol-2-yl)cyclohexyl]-3,5-dimethyl-1H-pyrrole-2-carboxamide triflouroacetate], with 107%; and `S=C(N[C@@H]1CCC[C@H](c2nc3ccccc3[nH]2)C1)c1ccc2c(c1)OCCO2` [Example 75, N-((1R,3S)-3-(1H-benzo[d]imidazol-2-yl)cyclohexyl)-2,3-dihydrobenzo[b] [1,4]dioxine-6-carbothioamide HCl], with 104%; and `Cc1c(Br)cc2[nH]c(C3CCCC(NC(=O)c4ccc5c(c4)OCCO5)C3)nc2c1C` (centres unmarked) [Example 82, N-[3-(6-bromo-4,5-dimethyl-1H-benzimidazol-2-yl)cyclohexyl]-2,3-dihydro-1,4-benzodioxine-6-carboxamide HCl], with 101%.
Consider `CCOC(=O)CCCCC(=O)NC1CCCC(c2nc3ccccc3[nH]2)C1` (centres unmarked) [Example 98, ethyl 6-{[3-(1H-benzimidazol-2-yl)cyclohexyl]amino}-6-oxohexanoate trifl;uoroacetate], for which the inhibition at 2 µM under setting [1] stood at 55%.
`O=C(Nc1cc(Cl)cc(Cl)c1)N[C@@H]1CCC[C@H](c2nc3ccccc3[nH]2)C1` [Example 227, 1-[(1R,3S)-3-(1H-benzimidazol-2-yl)cyclohexyl]-3-(3,5-dichlorophenyl) urea]: under setting [1], the inhibition at 2 µM was determined as 115%.
Still for that read-out and setting: then `O=C(NC1CCCC(c2nc3cc(F)c(F)cc3[nH]2)C1)c1ccc2c(c1)OCCO2` (centres unmarked) [Example 83, N-[3-(5,6-difluoro-1H-benzimidazol-2-yl)cyclohexyl]-2,3-dihydro-1,4-benzodioxine-6-carboxamide HCl], with 103%.
Regarding `O=C(NC1CCCC(c2nc3ccccc3[nH]2)C1)c1cc(-c2ccncc2)n[nH]1` (centres unmarked) [Example 135, N-[3-(1H-benzimidazol-2-yl)cyclohexyl]-3-pyridin-4-yl-1H-pyrazole-5-carboxamide triflouroacetate], the inhibition at 2 µM under setting [1] is 100%.
Take `O=C1Cc2cc(C(=O)N[C@@H]3CCC[C@H](c4nc5ccccc5[nH]4)C3)ccc2N1` [Example 219, N-[(1R,3S)-3-(1H-benzimidazol-2-yl)cyclohexyl]-2-oxoindoline-5-carboxamide triflouroacetate]: under setting [1], the inhibition at 2 µM is 87%.
Still for that read-out and setting: then `O=C(N[C@@H]1CCC[C@H](c2nc3cc(Cl)ccc3[nH]2)C1)c1ccc2c(c1)CN(CC1CC1)CC2` [Example 296, N-[(1R,3S)-3-(5-chloro-1H-benzimidazol-2-yl)cyclohexyl]-2-(cyclopropyl-methyl)-1,2,3,4-tetrahydroisoquino-line-7-carboxamide (+)-tartrate], with 106%.
For the molecule `COc1cc(OC)cc(C(=O)NC2CCCC(c3nc4ccc(Br)cc4[nH]3)C2)c1` (centres unmarked) [Example 17, N-(3-(5-Bromo-1H-benzo[d]imidazol-2-yl)cyclohexyl)-3,5-dimethoxybenzamide], under setting [2], the inhibition at 2 µM is 103%.
With `O=C(N[C@H]1CCC[C@@H](c2nc3ccc(Cl)cc3[nH]2)C1)c1ccc2c(c1)OCCO2` [Example 179, N-[(1S,3R)-3-(6-chloro-1H-benzimidazol-2-yl)cyclohexyl]-2,3-dihydro-1,4-benzodioxine-6-carboxamide HCl], under setting [1], the inhibition at 2 µM was 106%.
As to `COCCNCc1ccc2nc([C@H]3CCC[C@@H](NC(=O)c4ccc5c(c4)OCCO5)C3)[nH]c2c1` [Example 43], the inhibition at 2 µM under setting [2] came out at 99%.
